Key:
mouse tail = assay: Mouse tail-snip assay (bleeding time); format: in vivo; details: amputated tail submerged in 1.5 ml of test formulation; compared with water
Procedure: A formulation of the invention was tested for the ability to prevent bleeding using a mouse tail-snip assay. A portion of tail one centimeter in length was amputated from an anesthetized mouse, and the remaining portion of the tail was immediately submerged in 1.5 ml of test formulation. Bleeding time was recorded as time from amputation to complete cessation of bleeding. The following formulations were tested: water; a solution of 5% tranexamic acid (TXA) in water; a gelled formulation containing Poloxamer 407 (TDP); and a gelled formulation containing 5% tranexamic acid and TDP. Each formulation was tested on seven animals total over the course of three experiments.
FIG. 8 is a graph showing bleeding time of mouse tails exposed to various formulations in a mouse tail-snip assay. *P<0.05, **P<0.01, ***P<0.001, ****P<0.0001, based on one-way ANOVA with the Tukey post-test.

[1] = Drug release from solidified Poloxamer 407 thermogel; format: physicochemical; details: within 3 hours
Source text: The properties of thermogels based on Poloxamer 407 were investigated. Poloxamer 407 has a molecular weight of 12,000 Da and a PEO/PPO ratio of 2:1 by weight, and it is Generally Recognized As Safe (GRAS) by the FDA.

SMILES: NC[C@H]1CC[C@H](C(=O)O)CC1 [TXA, tranexamic acid]
- bleeding time (mouse tail): decrease bleeding time

SMILES: CCN(CC)CC(=O)Nc1c(C)cccc1C [lidocaine]
- drug being delivered [1]: ~60%

Reference: patent US20230181624A1, “COMPOSITIONS AND METHODS FOR TREATMENT OF GASTROINTESTINAL BLEEDING” (Intact Therapeutics, Inc., priority 2020, published 2023)
